ChEMBL document CHEMBL6074644, “Design, synthesis, and activity evaluation of water-soluble propofol derivatives as anesthetic drugs” (Bioorg Med Chem Lett, 2024)

How the values were obtained:
[1] = Toxicity in iv dosed Kunming mouse assessed as lethal dose; type: organism-based; conditions: in vivo
[2] = test system: Mus musculus; assay: Anesthetic activity in Kunming mouse assessed as reappearance of flip reflex by measuring duration time administered as single bolus dose; type: functional; further: test concentration or dose not given here
[3] = Therapeutic index, ratio of LD50 for toxicity in iv dosed Kunming mouse assessed as lethal dose to ED50 for anesthetic activity in iv dosed Kunming mouse; type: organism-based; conditions: in vivo, read-out: Ratio LD50/ED50
[4] = test system: Mus musculus; assay: Anesthetic activity in Kunming mouse assessed as disappearance of flip reflex by measuring onset time administered as single bolus dose; type: functional
[5] = test system: Mus musculus; assay: Anesthetic activity in iv dosed Kunming mouse by up and down method; type: functional

## CCN1CCN(CCC(=O)Oc2c(C(C)C)cccc2C(C)C)CC1.Cl
[1]
  LD50: 38000 µmol/kg
[2]
  Time: 167 s
[3]
  selectivity ratio: 3.2
[4]
  Time: 2 s
[5]
  ED50: 12 mg/kg

## CC(C)c1cccc(C(C)C)c1OC(=O)CCN1CCCCC1.Cl
[1]
  LD50: 36900 µmol/kg
[2]
  Time: 152 s
[3]
  selectivity ratio: 4.5
[4]
  Time: 21 s
[5]
  ED50: 8.2 mg/kg

## CC(C)c1cccc(C(C)C)c1OC(=O)CCN1CCCC1.Cl
[1]
  LD50: 3900 µmol/kg
[2]
  Time: 180 s
[3]
  selectivity ratio: 2.6
[4]
  Time: 5 s
[5]
  ED50: 15.1 mg/kg

## CCCN(CCC)CC(=O)OCCCC(=O)Oc1c(C(C)C)cccc1C(C)C.Cl
[1]
  LD50: 45900 µmol/kg
[2]
  Time: 402 s
[3]
  selectivity ratio: 5.1
[4]
  Time: 37 s
[5]
  ED50: 9 mg/kg

## CC1CCCN(CC(=O)OCCCC(=O)Oc2c(C(C)C)cccc2C(C)C)C1.Cl (stereo not given)
[1]
  LD50: 14700 µmol/kg
[2]
  Time: 547 s
[3]
  selectivity ratio: 5.1
[4]
  Time: 16 s
[5]
  ED50: 2.9 mg/kg

## CC1CCCN(CC(=O)Oc2c(C(C)C)cccc2C(C)C)C1.Cl (stereo not given)
[1]
  LD50: 3900 µmol/kg
[2]
  Time: 172 s
[3]
  selectivity ratio: 2.3
[4]
  Time: 27 s
[5]
  ED50: 1.7 mg/kg

## CC(C)c1cccc(C(C)C)c1OC(=O)CCN1CCN(C)CC1.Cl
[1]
  LD50: 33400 µmol/kg
[2]
  Time: 156 s
[3]
  selectivity ratio: 3.7
[4]
  Time: 14 s
[5]
  ED50: 9 mg/kg

## CC(C)c1cccc(C(C)C)c1OC(=O)CCCOC(=O)CN1CCCCC1.Cl
[1]
  LD50: 39800 µmol/kg
[2]
  Time: 440 s
[3]
  selectivity ratio: 4.8
[4]
  Time: 27 s
[5]
  ED50: 8.3 mg/kg

## CC1CCCN(CCC(=O)Oc2c(C(C)C)cccc2C(C)C)C1.Cl (stereo not given)
[1]
  LD50: 28700 µmol/kg
[2]
  Time: 144 s
[3]
  selectivity ratio: 4.1
[4]
  Time: 18 s
[5]
  ED50: 7.1 mg/kg

## CC1CCN(CCC(=O)Oc2c(C(C)C)cccc2C(C)C)CC1.Cl
[1]
  LD50: 38900 µmol/kg
[2]
  Time: 179 s
[3]
  selectivity ratio: 4.2
[4]
  Time: 41 s
[5]
  ED50: 9.2 mg/kg

## CCCN(CCC)CCCC(=O)OCCCC(=O)Oc1c(C(C)C)cccc1C(C)C.Cl
[1]
  LD50: 48100 µmol/kg
[2]
  Time: 536 s
[3]
  selectivity ratio: 5.2
[4]
  Time: 21 s
[5]
  ED50: 9.2 mg/kg

## CCN1CCN(CC(=O)Oc2c(C(C)C)cccc2C(C)C)CC1.Cl
[1]
  LD50: 11500 µmol/kg
[2]
  Time: 139 s
[3]
  selectivity ratio: 1.4
[4]
  Time: 13 s
[5]
  ED50: 8 mg/kg

## CC(C)c1cccc(C(C)C)c1OC(=O)CCCOC(=O)CCCN1CCOCC1.Cl
[1]
  LD50: 17500 µmol/kg
[2]
  Time: 375 s
[3]
  selectivity ratio: 4.9
[4]
  Time: 7 s
[5]
  ED50: 3.6 mg/kg

## CCN(CC)CCCC(=O)OCCCC(=O)Oc1c(C(C)C)cccc1C(C)C.Cl
[1]
  LD50: 36300 µmol/kg
[2]
  Time: 486 s
[3]
  selectivity ratio: 5.1
[4]
  Time: 24 s
[5]
  ED50: 7.1 mg/kg

## CCN1CCN(CCCC(=O)OCCCC(=O)Oc2c(C(C)C)cccc2C(C)C)CC1.Cl
[1]
  LD50: 31900 µmol/kg
[2]
  Time: 456 s
[3]
  selectivity ratio: 4.9
[4]
  Time: 11 s
[5]
  ED50: 6.5 mg/kg

## CCCN(CCC)CCC(=O)Oc1c(C(C)C)cccc1C(C)C.Cl
[1]
  LD50: 57600 µmol/kg
[2]
  Time: 168 s
[3]
  selectivity ratio: 3.8
[4]
  Time: 5 s
[5]
  ED50: 15.2 mg/kg

## CC(C)c1cccc(C(C)C)c1OC(=O)CCCOC(=O)CN1CCOCC1.Cl
[1]
  LD50: 39600 µmol/kg
[2]
  Time: 434 s
[3]
  selectivity ratio: 4.8
[4]
  Time: 19 s
[5]
  ED50: 8.2 mg/kg

## CCN1CCN(CC(=O)OCCCC(=O)Oc2c(C(C)C)cccc2C(C)C)CC1.Cl
[1]
  LD50: 50500 µmol/kg
[2]
  Time: 193 s
[3]
  selectivity ratio: 5
[4]
  Time: 16 s
[5]
  ED50: 10.1 mg/kg

## CC(C)c1cccc(C(C)C)c1OC(=O)CCN1CCCCC1C.Cl (stereo not given)
[1]
  LD50: 57700 µmol/kg
[2]
  Time: 154 s
[3]
  selectivity ratio: 4.1
[4]
  Time: 2 s
[5]
  ED50: 14 mg/kg

## CCN(CC)CC(=O)OCCCC(=O)Oc1c(C(C)C)cccc1C(C)C.Cl
[1]
  LD50: 52800 µmol/kg
[2]
  Time: 371 s
[3]
  selectivity ratio: 4.8
[4]
  Time: 20 s
[5]
  ED50: 11 mg/kg

## CC1CCN(CC(=O)OCCCC(=O)Oc2c(C(C)C)cccc2C(C)C)CC1.Cl
[1]
  LD50: 17600 µmol/kg
[2]
  Time: 362 s
[3]
  selectivity ratio: 4.8
[4]
  Time: 8 s
[5]
  ED50: 3.6 mg/kg

## CCN(CC)CCC(=O)Oc1c(C(C)C)cccc1C(C)C.Cl
[1]
  LD50: 58800 µmol/kg
[2]
  Time: 162 s
[3]
  selectivity ratio: 3.5
[4]
  Time: 3 s
[5]
  ED50: 17 mg/kg

## CC(C)c1cccc(C(C)C)c1O [PROPOFOL]
[1]
  LD50: 1600 µmol/kg
[2]
  Time: 57 s
[3]
  selectivity ratio: 2.7
[4]
  Time: 15 s
[5]
  ED50: 0.6 mg/kg

## CC1CCCN(CCCC(=O)OCCCC(=O)Oc2c(C(C)C)cccc2C(C)C)C1.Cl (stereo not given)
[1]
  LD50: 10700 µmol/kg
[2]
  Time: 571 s
[3]
  selectivity ratio: 5.6
[4]
  Time: 11 s
[5]
  ED50: 1.9 mg/kg

## CC(C)c1cccc(C(C)C)c1OC(=O)CCN1CCOCC1.Cl
[1]
  LD50: 43800 µmol/kg
[2]
  Time: 145 s
[3]
  selectivity ratio: 3.6
[4]
  Time: 16 s
[5]
  ED50: 12 mg/kg

## CC(C)c1cccc(C(C)C)c1OC(=O)CCCOC(=O)CCCN1CCCCC1C.Cl (stereo not given)
[1]
  LD50: 32100 µmol/kg
[2]
  Time: 412 s
[3]
  selectivity ratio: 5.2
[4]
  Time: 9 s
[5]
  ED50: 6.2 mg/kg

## CC1CCN(CCCC(=O)OCCCC(=O)Oc2c(C(C)C)cccc2C(C)C)CC1.Cl
[1]
  LD50: 13100 µmol/kg
[2]
  Time: 337 s
[3]
  selectivity ratio: 5.2
[4]
  Time: 3 s
[5]
  ED50: 2.5 mg/kg

## CC(C)c1cccc(C(C)C)c1OC(=O)CCCOC(=O)CN1CCCCC1C.Cl (stereo not given)
[1]
  LD50: 62800 µmol/kg
[2]
  Time: 317 s
[3]
  selectivity ratio: 4.8
[4]
  Time: 9 s
[5]
  ED50: 13 mg/kg

## CC(C)c1cccc(C(C)C)c1OC(=O)CCCOC(=O)CN1CCCC1.Cl
[1]
  LD50: 56500 µmol/kg
[2]
  Time: 216 s
[3]
  selectivity ratio: 5
[4]
  Time: 18 s
[5]
  ED50: 11.3 mg/kg

## CC(C)c1cccc(C(C)C)c1OC(=O)CCCOC(=O)CCCN1CCCC1.Cl
[1]
  LD50: 46400 µmol/kg
[2]
  Time: 534 s
[3]
  selectivity ratio: 5.2
[4]
  Time: 1 s
[5]
  ED50: 8.9 mg/kg

## CC(C)c1cccc(C(C)C)c1OC(=O)CCCOC(=O)CCCN1CCCCC1.Cl
[1]
  LD50: 12300 µmol/kg
[2]
  Time: 413 s
[3]
  selectivity ratio: 5.1
[4]
  Time: 8 s
[5]
  ED50: 2.4 mg/kg

## CC(C)c1cccc(C(C)C)c1OC(=O)CN1CCCCC1C.Cl (stereo not given)
[1]
  LD50: 15800 µmol/kg
[2]
  Time: 150 s
[3]
  selectivity ratio: 1.7
[4]
  Time: 27 s
[5]
  ED50: 9.2 mg/kg

## CC1CCN(CC(=O)Oc2c(C(C)C)cccc2C(C)C)CC1.Cl
[1]
  LD50: 18000 µmol/kg
[2]
  Time: 137 s
[3]
  selectivity ratio: 1.6
[4]
  Time: 11 s
[5]
  ED50: 11.1 mg/kg
